The values that follow come from PMC9683047, “Design, synthesis and biological evaluation of 4-aminoquinoline derivatives as receptor-interacting protein kinase 2 (RIPK2) inhibitors” (Journal of Enzyme Inhibition and Medicinal Chemistry, 2022).

For series [1], the target named is T1, RIPK2 (Homo sapiens, UniProt O43353).
T1 construct: purchased Promega
In words: RIPK2 kinase inhibition assay (ADP-Glo). The format is biochemical. As to conditions: mean ± SD from two separate experiments. The protocol:
RIPK2 kinase activity was analysed using the ADP-Glo™ Assay Kit (RIPK2 Kinase Enzyme System, Promega, USA). Reactions were performed according to the instructions. Specific signal was calculated by subtracting values in the wells without protein and inhibitor from the values in the test wells.

For series [2], the target named is T1, RIPK2. Description: Lipophilic ligand efficiency (LipE). Particulars: LipE = pIC50 − ClogP.
In a further series the target is T2, AO oxidase (Homo sapiens, UniProt Q06278).
T2 construct: could undergo mono oxidative metabolism in the human liver cytosol incubation system; from tissue; host or cells: human liver cytosol
T2 sequence (Q06278 whole entry): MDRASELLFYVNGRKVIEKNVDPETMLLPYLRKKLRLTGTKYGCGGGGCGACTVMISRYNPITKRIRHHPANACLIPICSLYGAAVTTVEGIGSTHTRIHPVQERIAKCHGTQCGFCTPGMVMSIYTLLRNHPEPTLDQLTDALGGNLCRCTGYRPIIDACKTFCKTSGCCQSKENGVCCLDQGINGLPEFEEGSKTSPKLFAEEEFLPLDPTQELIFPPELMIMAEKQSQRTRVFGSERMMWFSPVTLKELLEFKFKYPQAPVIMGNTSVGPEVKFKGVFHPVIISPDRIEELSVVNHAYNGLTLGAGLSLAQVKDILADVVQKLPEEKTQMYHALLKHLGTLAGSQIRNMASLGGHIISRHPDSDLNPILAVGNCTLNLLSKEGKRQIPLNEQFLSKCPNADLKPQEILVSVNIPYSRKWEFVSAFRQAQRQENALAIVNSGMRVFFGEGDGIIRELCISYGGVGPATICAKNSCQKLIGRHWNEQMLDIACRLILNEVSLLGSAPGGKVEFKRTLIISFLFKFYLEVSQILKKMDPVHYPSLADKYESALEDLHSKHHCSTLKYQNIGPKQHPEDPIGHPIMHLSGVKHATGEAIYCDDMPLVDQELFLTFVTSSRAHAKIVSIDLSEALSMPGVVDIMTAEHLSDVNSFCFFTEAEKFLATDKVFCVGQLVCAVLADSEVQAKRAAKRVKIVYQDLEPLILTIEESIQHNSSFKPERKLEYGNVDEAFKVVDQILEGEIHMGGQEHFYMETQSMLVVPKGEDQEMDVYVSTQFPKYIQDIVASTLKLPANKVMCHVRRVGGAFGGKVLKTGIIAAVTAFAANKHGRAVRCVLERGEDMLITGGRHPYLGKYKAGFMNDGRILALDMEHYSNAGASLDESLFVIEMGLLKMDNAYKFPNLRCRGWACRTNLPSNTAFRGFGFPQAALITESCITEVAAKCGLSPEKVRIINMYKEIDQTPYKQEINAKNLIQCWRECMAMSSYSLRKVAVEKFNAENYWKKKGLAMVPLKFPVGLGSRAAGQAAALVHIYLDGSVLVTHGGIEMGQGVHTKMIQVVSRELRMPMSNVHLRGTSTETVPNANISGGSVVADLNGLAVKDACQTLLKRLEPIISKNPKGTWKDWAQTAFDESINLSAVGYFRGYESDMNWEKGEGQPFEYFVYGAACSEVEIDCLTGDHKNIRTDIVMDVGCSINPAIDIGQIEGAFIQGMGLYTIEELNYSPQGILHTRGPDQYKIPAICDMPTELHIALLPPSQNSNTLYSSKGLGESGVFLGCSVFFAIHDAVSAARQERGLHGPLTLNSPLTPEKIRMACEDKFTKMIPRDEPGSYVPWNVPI
In words: AO oxidative metabolism in human liver cytosol. Type of series: in vitro ADME. Particulars: human liver cytosol incubation; inhibitors raloxifene and menadione. The procedure:
However, we have done experiment on AO oxidative metabolism of compound 14 and P5. Both compound 14 and P5 could undergo mono oxidative metabolism in the human liver cytosol incubation system.

The target in another series is T3, RIPK1 (Homo sapiens, UniProt Q13546).
T3 sequence (Q13546 1-671): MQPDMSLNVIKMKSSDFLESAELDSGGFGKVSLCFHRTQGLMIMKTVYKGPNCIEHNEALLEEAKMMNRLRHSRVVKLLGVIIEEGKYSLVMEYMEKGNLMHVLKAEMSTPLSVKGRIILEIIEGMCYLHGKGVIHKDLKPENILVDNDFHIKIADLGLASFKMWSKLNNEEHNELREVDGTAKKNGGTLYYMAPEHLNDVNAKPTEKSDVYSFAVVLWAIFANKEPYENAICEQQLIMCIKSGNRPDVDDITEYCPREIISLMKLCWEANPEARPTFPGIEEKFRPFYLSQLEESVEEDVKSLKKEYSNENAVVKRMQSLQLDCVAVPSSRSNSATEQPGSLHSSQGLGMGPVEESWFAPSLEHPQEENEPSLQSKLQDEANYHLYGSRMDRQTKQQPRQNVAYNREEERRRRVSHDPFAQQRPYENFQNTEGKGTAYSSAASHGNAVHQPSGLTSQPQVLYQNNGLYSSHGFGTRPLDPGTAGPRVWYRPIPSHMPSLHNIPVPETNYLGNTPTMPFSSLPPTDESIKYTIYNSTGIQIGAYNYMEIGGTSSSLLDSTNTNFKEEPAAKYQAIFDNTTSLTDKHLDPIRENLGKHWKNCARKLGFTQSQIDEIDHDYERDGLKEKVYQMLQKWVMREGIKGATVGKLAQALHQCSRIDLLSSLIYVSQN
Description: RIPK1 inhibition rate at 1 µM. The format is biochemical. The procedure:
Table 4. Selectivity, ClogP and LipE of compound 14, 15, 21, 32, 36. | column: RIPK1 IR@1µM (%)

Series [3] concerns MDP-induced TNF-α secretion in Raw264.7. Description: TNF-α secretion in MDP-induced Raw264.7 (ELISA). Type of series: cell-based, mouse. Particulars: Raw264.7, compounds 1 h then L18-MDP 20 µg/mL 24 h, series concentration. The protocol:
Raw 264.7 was cultured in DMEM containing 10% (w/v) foetal bovine serum (FBS). Cell were seeded at a density of 1 × 10^5 cells/well in a 48 well plate overnight, then cells were treated with different concentrations of compounds for1h, following by stimulated with L18-MDP (20 µg/mL, Invivogen) for 24 h. The Cell supernatants were harvested for enzyme-linked immunosorbent assay (ELISA).
TNFα commercial ELISA kits (DAKEWE) were used to detect TNFα in cell culture supernatants according to the manufacturer’s instructions. The concentration of cytokines was determined using multiwell spectrophotometer (SpetraMAX PLUS, Molecular Devices).

T1 sequence (O43353 whole entry): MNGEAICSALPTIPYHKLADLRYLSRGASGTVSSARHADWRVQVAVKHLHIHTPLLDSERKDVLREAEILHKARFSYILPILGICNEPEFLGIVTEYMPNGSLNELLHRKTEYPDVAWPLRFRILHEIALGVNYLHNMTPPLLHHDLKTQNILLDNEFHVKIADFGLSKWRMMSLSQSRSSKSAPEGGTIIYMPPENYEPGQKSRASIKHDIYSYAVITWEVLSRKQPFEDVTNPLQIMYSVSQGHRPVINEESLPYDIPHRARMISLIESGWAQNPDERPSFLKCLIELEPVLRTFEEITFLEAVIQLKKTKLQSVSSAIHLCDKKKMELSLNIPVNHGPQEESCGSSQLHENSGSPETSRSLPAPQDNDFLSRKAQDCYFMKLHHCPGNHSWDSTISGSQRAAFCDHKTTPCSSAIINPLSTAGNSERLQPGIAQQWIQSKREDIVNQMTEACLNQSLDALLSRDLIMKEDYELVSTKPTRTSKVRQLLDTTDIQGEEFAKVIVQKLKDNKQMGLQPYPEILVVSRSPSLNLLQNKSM

As for `CC(C)(C)S(=O)(=O)c1cc2c(Nc3ccc4scnc4c3)ncnc2cc1OCCO` [Compound P5, reference compound], on RIPK2 [1], half-maximal inhibition (IC50) was put at 2.6 ± 1.2 nM. This compound also registered a LipE at RIPK2 [2] of 6.70. The AO oxidase substrate entry at AO oxidase is recorded as “metabolic substrates of AO oxidase”.

`c1cncc(-c2ccc3nccc(Nc4ccc5scnc5c4)c3c2)c1` [Compound 15, N-(6-(pyridin-3-yl)quinolin-4-yl)benzo[d]thiazol-5-amine] came in with a half-inhibitory concentration (IC50) against RIPK2 [1] of 6 ± 1.5 nM. Besides, at RIPK1, the “RIPK1 IR@1µM (%)” value was less than 1%. The LipE at RIPK2 [2] is listed as 4.27. For the same compound, in series [3], the “inhibition of MDP-induced TNF-α secretion” value was “almost no inhibition”.

At RIPK2 [1], `Cc1n[nH]cc1-c1ccc2nccc(Nc3ccc4scnc4c3)c2c1` [Compound 21, N-(6–(3-methyl-1H-pyrazol-4-yl)quinolin-4-yl)benzo[d]thiazol-5-amine] had an IC50 of 4.1 ± 0.9 nM. Besides, the “RIPK1 IR@1µM (%)” value on RIPK1 is less than 1%. The compound further came in with a LipE on RIPK2 [2] of 4.99.
